This note sets out measurements from ChEMBL document CHEMBL1143215, “Orally active esters of dihydroartemisinin: Synthesis and antimalarial activity against multidrug-resistant Plasmodium yoelii in mice” (Bioorg Med Chem Lett, 2008).

As usually defined, the logP is the decadic logarithm of the partition coefficient of the neutral form, usually between octanol and water.

The test system of series [1] is Plasmodium yoelii nigeriensis. As to the kind of experiment: Antimalarial activity as reduced parasitemia day 4 against multidrug-resistant Plasmodium yoelii nigeriensis infected Swiss mice (Mus musculus) at 24 mg/kg/day peroral dose over 4 days. It is filed as functional. Further details: scale not given: the % may be the effect or the level left. To be noted: route oral.

The test system of series [2] is Plasmodium yoelii nigeriensis. The series is described as follows: Reduced parasitemia in multidrug-resistant Plasmodium yoelii nigeriensis infected Swiss mice (Mus musculus) at 48 mg/kg peroral dose after 4 days. It is filed as functional. Further details: scale not given: the % may be the effect or the level left. The note with it: route oral.
A short description of series [3]: Partition coefficient, log P of the compound. In kind it is physicochemical. The note with it: octanol/water.
Series [4] relates to Plasmodium yoelii nigeriensis. As to the kind of experiment: Reduced parasitemia in multidrug-resistant Plasmodium yoelii nigeriensis infected Swiss mice (Mus musculus) at 12 mg/kg peroral dose after 4 days. To be noted: route oral. It is filed as functional. On the set-up: scale not given: the % may be the effect or the level left.
In series [5] the test system is Plasmodium yoelii nigeriensis. As to the kind of experiment: Survival in multidrug-resistant Plasmodium yoelii nigeriensis infected Swiss mice (Mus musculus) at 12 mg/kg peroral dose after 28 days. In kind it is functional.
Series [6] in a line: Chemical stability in acidic solution containing tetrahydrofuran and 10% aqueous HCl after 96 hrs. It is filed as physicochemical. To be noted: acidic solution of tetrahydrofuran and 10% aqueous HCl; read-out: Stability.

Calls of active or inactive are those of the source. The rule behind the calls is not given here.

Take `C[C@H]1[C@H](OC(=O)c2ccc(-c3ccccc3)cc2)O[C@@H]2O[C@]3(C)CC[C@H]4[C@H](C)CC[C@@H]1[C@@]24OO3`: the Activity in series [1] and in series [2] was 100% in each case. The compound also came in with a logP in series [3] of 6.95.
With `C[C@H]1[C@H](OC(=O)Cc2ccc(-c3ccccc3)cc2)O[C@@H]2O[C@]3(C)CC[C@H]4[C@H](C)CC[C@@H]1[C@@]24OO3`, the Activity in series [1] and in series [2] was 100% each time. Further, the logP in series [3] is 6.89.
`C[C@H]1[C@H](OC(=O)COc2ccccc2-c2ccccc2)O[C@@H]2O[C@]3(C)CC[C@H]4[C@H](C)CC[C@@H]1[C@@]24OO3`: the Activity in series [1], in series [2] and in series [4] was 100% in each case. Moreover, in series [3], the logP was determined as 6.53.
Turning to `C[C@H]1[C@H](OC(=O)COc2ccc(-c3ccccc3)cc2)O[C@@H]2O[C@]3(C)CC[C@H]4[C@H](C)CC[C@@H]1[C@@]24OO3`, the Activity in series [1], in series [2] and in series [4] was 100% each time. The compound also displayed a logP in series [3] of 6.53.
With `C[C@H]1[C@H](OC(=O)CCC23CC4CC(CC(C4)C2)C3)O[C@@H]2O[C@]3(C)CC[C@H]4[C@H](C)CC[C@@H]1[C@@]24OO3`, the Activity in series [1], in series [2] and in series [4] was 100% in each case. For the same compound, the logP in series [3] worked out at 6.41.
Turning to `C[C@H]1[C@H](OC(=O)CC2c3ccccc3-c3ccccc32)O[C@@H]2O[C@]3(C)CC[C@H]4[C@H](C)CC[C@@H]1[C@@]24OO3`, the Activity in series [1], in series [2] and in series [4] was 100% each time. Besides, the outcome in series [5] was inactive. For the same compound, the logP in series [3] amounted to 6.79.
`C[C@H]1[C@H](OCc2ccc(-c3ccccc3)cc2)O[C@@H]2O[C@]3(C)CC[C@H]4[C@H](C)CC[C@@H]1[C@@]24OO3` had an Activity in series [4] of 100%.
Same read-out and setting: with `C[C@H]1[C@H](OCC23CC4CC(CC(C4)C2)C3)O[C@@H]2O[C@]3(C)CC[C@H]4[C@H](C)CC[C@@H]1[C@@]24OO3` the figure was 100%.
With `C[C@H]1[C@H](OC(=O)C23CC4CC(CC(C4)C2)C3)O[C@@H]2O[C@]3(C)CC[C@H]4[C@H](C)CC[C@@H]1[C@@]24OO3`, the Activity in series [1], in series [2] and in series [4] was 100% each time. Also, the logP in series [3] was determined as 6.05.
Turning to `C[C@H]1[C@H](OC(=O)CC2C3CC4CC(C3)CC2C4)O[C@@H]2O[C@]3(C)CC[C@H]4[C@H](C)CC[C@@H]1[C@@]24OO3` (some centres not stated), the Activity in series [1], in series [2] and in series [4] was 100% each time. For the same compound, the logP in series [3] came to 5.85.
As to `C[C@H]1[C@H](OC(=O)CCC(=O)O)O[C@@H]2O[C@@]3(C)CC[C@H]4[C@H](C)CC[C@@H]1[C@@]24OO3` [ARTESUNATE], the Activity in series [1] and in series [2] was 100% throughout.
`C[C@H]1[C@H](OC(=O)C2c3ccccc3-c3ccccc32)O[C@@H]2O[C@]3(C)CC[C@H]4[C@H](C)CC[C@@H]1[C@@]24OO3`: the Activity in series [1], in series [2] and in series [4] was 100% throughout. Also, the remaining at 96 h in series [6] came to 80%. In series [3], this compound came in with a logP of 6.61.
Take `C[C@H]1[C@H](OC(=O)CC23CC4CC(CC(C4)C2)C3)O[C@@H]2O[C@]3(C)CC[C@H]4[C@H](C)CC[C@@H]1[C@@]24OO3`: the Activity was determined as 100% in series [1], 20% in series [5] (route oral), 100% in series [2] and 100% in series [4]. For the same compound, the logP in series [3] was found to be 5.99.
For the compound `CCO[C@H]1O[C@@H]2O[C@@]3(C)CC[C@H]4[C@H](C)CC[C@@H]([C@H]1C)[C@@]24OO3` [ARTEMOTIL], the Activity in series [1] and in series [2] was 100% in each case.
